Measurements from patent publication US20250197513A1, “OSMR-SPECIFIC MONOCLONAL ANTIBODIES AND METHODS OF THEIR USE” (THE BOARD OF REGENTS OF THE UNIVERSITY OF TEXAS SYSTEM, priority 2021, published 2025).

What was measured:
[1] = system: A2780-Cis cells; test: Cell viability, cisplatin 48 h; type: cell-based, human; settings: cisplatin alone
Description: (§1) CCK8 cell viability assay: One thousand cells were seeded each well in 96-well plates. Following treatment for 48 h, the cells were washed with PBS and incubated for 4 h with CCK8 reagent at 37° C. in 5% CO2 incubator according to manufacturer's guidelines. The absorbance was measured at 460 nm.

[2] = system: OVCAR8 cells; test: Cell viability, cisplatin 48 h; type: cell-based, human; settings: cisplatin alone
Description: as §1

[3] = system: A2780 cells; test: Cell viability, cisplatin 48 h; type: cell-based, human; settings: cisplatin alone
Description: as §1

[4] = system: A2780 ovarian cancer; test: In vivo, intraperitoneal A2780-sensitive luciferase tumors; parameters: species or system athymic nude mice; settings: single agent, mice stimulated with OSM; cisplatin 5 mg/kg biweekly
[5] = system: SL3 cells; test: Cell viability, cisplatin 48 h; type: cell-based, human; settings: cisplatin alone
Description: as §1

[6] = system: OVCAR8-Cis cells; test: Cell viability, cisplatin 48 h; type: cell-based, human; settings: cisplatin alone
Description: as §1

[7] = system: A2780-CP tumors; test: In vivo, intraperitoneal A2780-cisplatin resistant luciferase tumors; parameters: species or system athymic nude mice; settings: cisplatin alone, 5 mg/kg biweekly
[8] = system: SL-3-Cis cells; test: Cell viability, cisplatin 48 h; type: cell-based, human; settings: cisplatin alone
Description: as §1

Structure (SMILES): N.N.[Cl][Pt][Cl] [cisplatin]
- IC50 [1]: 10.4 µM
- IC50 [2]: 1.74 µM
- IC50 [3]: 2.04 µM
- growth of A2780 ovarian cancer (bioluminescence) [4]: reduced the growth
- IC50 [5]: 1.21 µM
- IC50 [6]: 13.6 µM
- growth and metastasis of A2780-CP tumors [7]: did not inhibit the growth and metastasis
- IC50 [8]: 7.37 µM
